Test results taken from patent US20230040182A1, “ARYL HETEROBICYCLIC COMPOUNDS AS Kv1.3 POTASSIUM SHAKER CHANNEL BLOCKERS” (priority 2019, published 2023).

These molecules were tested against T1, Kv1.3 potassium channel (Homo sapiens, UniProt P22001) (assay: Kv1.3 potassium channel blocker activity, automated whole-cell patch clamp (Patchliner)). Conditions: CHO-K1 cells stably expressing Kv1.3; whole-cell current, Hill fit.
T1 construct: expressed in transfected cells
Format: cell-based
Protocol: Example 9. Evaluation of Kv1.3 Potassium Channel Blocker Activities
This assay is used to evaluate the disclosed compounds' activities as Kv1.3 potassium channel blockers.
CHO-K1 cells stably expressing Kv1.3 were grown in DMEM containing 10% heat-inactivated FBS, 1 mM Sodium Pyruvate, 2 mM L-Glutamine and G418 (500 μg/ml). Cells were grown in culture flasks at 37° C. in a […] incubator.
The cells were bathed in an extracellular solution containing 140 mM NaCl, 4 mM KCl, 2 mM CaCl2, 1 mM MgCl2, 5 mM Glucose, 10 mM HEPES; pH adjusted to 7.4 with NaOH; 295-305 mOsm. The internal solution contained 50 mM KCl, 10 mM NaCl, 60 mM KF, 20 mM EGTA, 10 mM HEPES; pH adjusted to 7.2 with KOH; 285 mOsm. All compounds were dissolved in DMSO at 30 mM. Compound stock solutions were freshly diluted with external solution to concentrations of 30 nM, 100 nM, 300 nM, 1 μM, 3 μM, 10 μM, 30 μM and 100 μM. The highest content of DMSO (0.3%) was present in 100 μM.
The currents were evoked by applying 100 ms depolarizing pulses from −90 mV (holding potential) to +40 mV were applied with 0.1 Hz frequency. Control (compound-free) and compound pulse trains for each compound concentration applied contained 20 pulses. 10-second breaks were used between pulse trains (see Table A below).
Whole-cell current recordings and compound application were enabled by means of an automated patch clamp platform Patchliner (Nanion Technologies GmbH). EPC 10 patch clamp amplifier (HEKA Elektronik Dr. Schulze GmbH) along with Patchmaster software (HEKA Elektronik Dr. Schulze GmbH) was used for data acquisition. Data were sampled at 10 kHz without filtering. Passive leak currents were subtracted online using a P/4 procedure (HEKA Elektronik Dr. Schulze GmbH). Increasing compound concentrations were applied consecutively to the same cell without washouts in between. Total compound incubation time before the next pulse train was not longer than 10 seconds. Peak current inhibition was observed during compound equilibration.
AUC and peak values were obtained with Patchmaster (HEKA Elektronik Dr. Schulze GmbH). To determine IC50, the last single pulse in the pulse train corresponding to a given compound concentration was used. Obtained AUC and peak values in the presence of compound were normalized to control values in the absence of compound. Using Origin (OridinLab), IC50 was derived from data fit to Hill equation: Icompound/Icontrol=(100−A)/(1+([compound]/IC50)nH)+A, where IC50 value is the concentration at which current inhibition is half-maximal, [compound] is the applied compound concentration, A is the fraction of current that is not blocked and nH is the Hill coefficient.

T1 sequence (P22001 whole entry): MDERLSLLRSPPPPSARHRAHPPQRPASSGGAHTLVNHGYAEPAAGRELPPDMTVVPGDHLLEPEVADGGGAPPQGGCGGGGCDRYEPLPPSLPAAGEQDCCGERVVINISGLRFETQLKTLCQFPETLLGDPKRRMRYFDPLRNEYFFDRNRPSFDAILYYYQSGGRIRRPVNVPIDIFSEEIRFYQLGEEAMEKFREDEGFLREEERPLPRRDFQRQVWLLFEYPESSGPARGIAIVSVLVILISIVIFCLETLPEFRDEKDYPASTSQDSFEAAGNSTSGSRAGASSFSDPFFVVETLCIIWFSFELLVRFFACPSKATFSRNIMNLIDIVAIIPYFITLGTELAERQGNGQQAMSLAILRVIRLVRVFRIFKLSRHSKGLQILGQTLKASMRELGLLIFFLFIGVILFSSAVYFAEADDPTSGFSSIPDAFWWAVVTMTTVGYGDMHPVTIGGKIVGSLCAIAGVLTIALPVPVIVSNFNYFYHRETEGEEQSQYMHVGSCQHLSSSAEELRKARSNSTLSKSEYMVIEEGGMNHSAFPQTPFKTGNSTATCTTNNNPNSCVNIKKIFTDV

Row | Structure (SMILES) | IC50 [µM]
1 | Cc1ccc(O)c([C@@H]2CCN3C(=O)[C@@H](CO)NC(=O)[C@@H]3C2)c1Cl (relative stereo) [Compound 28, (8R,9aS)-rel-8-(2-chloro-6-hydroxy-3-methylphenyl)-3-((3R)-hydroxymethyl)-hexahydro-2H-pyrido[1,2-a]pyrazine-1,4-dione] | < 1
2 | NC[C@H]1NC(=O)[C@@H]2C[C@H](c3c(O)ccc(Cl)c3Cl)CCN2C1=O (relative stereo) [Compound 38, (8R,9aS)-rel-3-((3R)-aminomethyl)-8-(2,3-dichloro-6-hydroxyphenyl)-hexahydro-2H-pyrido[1,2-a]pyrazine-1,4-dione; trifluoroacetic acid] | < 1
3 | Cc1c(Cl)ccc(O)c1[C@@H]1CCN2C(=O)[C@@H](CO)NC(=O)[C@@H]2C1 (relative stereo) [Compound 49, (8R,9aS)-rel-8-(3-chloro-6-hydroxy-2-methylphenyl)-3-((3R)-hydroxymethyl)-hexahydro-2H-pyrido[1,2-a]pyrazine-1,4-dione] | < 10
4 | O=C1NC(=O)N2CC[C@@H](c3c(O)ccc(Cl)c3Cl)C[C@@H]12 (single isomer, unassigned; diastereoisomer 2) [Compound 19, 7-(2,3-dichloro-6-hydroxyphenyl)tetrahydro-imidazo[1,5-a]pyridine-1,3(2H,5H)-dione diastereoisomer 2] | < 1
5 | O=C1[C@H]2C[C@H](O)CN2C(=O)[C@H]2C[C@@H](c3c(O)ccc(Cl)c3Cl)CCN12 (single isomer, unassigned; isomer 1) [Compound 23, 7-(2,3-dichloro-6-hydroxyphenyl)-2-hydroxyhexahydro-1H-pyrido[1,2-a]pyrrolo[1,2-d]pyrazine-5,11(5aH,11aH)-dione isomer 1] | < 10
6 | O=C1[C@@H]2C[C@H](c3c(O)ccc(Cl)c3Cl)CCN2C(=O)[C@@H]2[C@H](O)CCN12 (single isomer, unassigned; isomer 1) [Compound 29, 7-(2,3-dichloro-6-hydroxyphenyl)-1-hydroxyhexahydro-1H-pyrido[1,2-a]pyrrolo[1,2-d]pyrazine-5,11(5aH,11aH)-dione isomer 1] | < 10
7 | O=C1[C@H]2[C@H](O)CCN2C(=O)[C@H]2C[C@@H](c3c(O)ccc(Cl)c3Cl)CCN12 (single isomer, unassigned; isomer 2) [Compound 17, 7-(2,3-dichloro-6-hydroxyphenyl)-1-hydroxyhexahydro-1H-pyrido[1,2-a]pyrrolo[1,2-d]pyrazine-5,11(5aH,11aH)-dione isomer 2] | < 1
8 | O=C1[C@H]2C[C@@H](c3c(O)ccc(Cl)c3Cl)CCN2C(=O)CN1C1CC(O)C1 (single isomer, unassigned; isomer 3) [Compound 34, 8-(2,3-dichloro-6-hydroxyphenyl)-2-[3-hydroxycyclobutyl]-hexahydropyrido[1,2-a]pyrazine-1,4-dione isomer 3] | < 10
9 | O=C1[C@@H]2C[C@H](O)CN2C(=O)[C@H]2C[C@@H](c3c(O)ccc(Cl)c3Cl)CCN12 (single isomer, unassigned; isomer 3) [Compound 45, 7-(2,3-dichloro-6-hydroxyphenyl)-2-hydroxyhexahydro-1H-pyrido[1,2-a]pyrrolo[1,2-d]pyrazine-5,11(5aH,11aH)-dione isomer 3] | < 10
10 | O=C1[C@H]2[C@H](O)CCN2C(=O)[C@@H]2C[C@H](c3c(O)ccc(Cl)c3Cl)CCN12 (single isomer, unassigned; isomer 3) [Compound 69, 7-(2,3-dichloro-6-hydroxyphenyl)-1-hydroxyhexahydro-1H-pyrido[1,2-a]pyrrolo[1,2-d]pyrazine-5,11(5aH,11aH)-dione isomer 3] | < 1
11 | O=C1[C@H]2C[C@@H](c3c(O)ccc(Cl)c3Cl)CCN2C(=O)CN1C1CC(O)C1 (single isomer, unassigned; isomer 4) [Compound 5, 8-(2,3-dichloro-6-hydroxyphenyl)-2-[3-hydroxycyclobutyl]-hexahydropyrido[1,2-a]pyrazine-1,4-dione isomer 4] | < 10
12 | C[C@@H]1NC(=O)C2CC(c3c(O)ccc(Cl)c3Cl)CCN2C1=O (stereo partly drawn) [Compound 4, (3S)-8-(2,3-dichloro-6-hydroxyphenyl)-3-methyl-octahydro-1H-pyrido[1,2-a]pyrazine-1,4-dione] | < 10
13 | O=C1[C@H]2C[C@@H](c3cc(Cl)c(Cl)cc3O)CCN2C(=O)CN1C1CNC1 [Compound 10, (8S,9aR)-2-(azetidin-3-yl)-8-(4,5-dichloro-2-hydroxyphenyl)hexahydro-4H-pyrido[1,2-a]pyrazine-1,4(6H)-dione] | < 10
14 | CC[C@H]1NC(=O)[C@H]2C[C@@H](c3c(O)ccc(Cl)c3Cl)CCN2C1=O [Compound 11, (8S,9aR)-8-(2,3-dichloro-6-hydroxyphenyl)-3-(3R)-ethyl-hexahydro-2H-pyrido[1,2-a]pyrazine-1,4-dione] | < 1
15 | CN1C(=O)[C@H]2C[C@@H](c3c(O)ccc(Cl)c3Cl)CCN2C(=O)[C@H]1CO [Compound 13, (3R,8S,9aR)-8-(2,3-dichloro-6-hydroxyphenyl)-3-(hydroxymethyl)-2-methyl-hexahydropyrido[1,2-a]pyrazine-1,4-dione] | < 30
16 | O=C1NNC(=O)N2CC[C@H](c3c(O)ccc(Cl)c3Cl)C[C@H]12 [Compound 15, (8S,9aR)-8-(2,3-dichloro-6-hydroxyphenyl)hexahydro-4H-pyrido[1,2-d][1,2,4]triazine-1,4(6H)-dione] | < 10
17 | C[C@@H](O)[C@H]1NC(=O)[C@H]2C[C@@H](c3c(O)ccc(Cl)c3Cl)CCN2C1=O [Compound 16, (3R,8S,9aR)-8-(2,3-dichloro-6-hydroxyphenyl)-3-[(1R)-1-hydroxyethyl]-hexahydro-2H-pyrido[1,2-a]pyrazine-1,4-dione] | < 10
18 | O=C1[C@H]2C[C@@H](c3c(O)ccc(Cl)c3Cl)CCN2C(=O)CN1C(CO)CO [Compound 21, (8S,9aR)-8-(2,3-dichloro-6-hydroxyphenyl)-2-(1,3-dihydroxypropan-2-yl)hexahydro-4H-pyrido[1,2-a]pyrazine-1,4(6H)-dione] | < 10
19 | O=C1[C@H]2[C@@H](O)CCN2C(=O)[C@H]2C[C@@H](c3c(O)ccc(Cl)c3Cl)CCN12 [Compound 25, (1S,5aR,7S,11aR)-7-(2,3-dichloro-6-hydroxyphenyl)-1-hydroxyhexahydro-1H-pyrido[1,2-a]pyrrolo[1,2-d]pyrazine-5,11(5aH,11aH)-dione] | < 10
20 | NN1C(=O)[C@H]2C[C@@H](c3c(O)ccc(Cl)c3Cl)CCN2C1=O [Compound 27, (7S,8aR)-2-amino-7-(2,3-dichloro-6-hydroxyphenyl)tetrahydro-imidazo[1,5-a]pyridine-1,3(2H,5H)-dione] | < 1
21 | O=C1N[C@H](CO)C(=O)N2CC(c3c(O)ccc(Cl)c3Cl)CC12 (stereo partly drawn) [Compound 31, (3R)-7-(2,3-dichloro-6-hydroxyphenyl)-3-(hydroxymethyl)hexahydro-pyrrolo[1,2-a]pyrazine-1,4-dione] | < 1
22 | O=C1NNC(=O)N2CC[C@@H](c3c(O)ccc(Cl)c3Cl)C[C@@H]12 [Compound 33, (8R,9aS)-8-(2,3-dichloro-6-hydroxyphenyl)hexahydro-4H-pyrido[1,2-d][1,2,4]triazine-1,4(6H)-dione] | < 1
23 | O=C1[C@H]2C[C@@H](c3c(O)ccc(Cl)c3Cl)CCN2C(=O)CN1CCO [Compound 37, (8S,9aR)-8-(2,3-dichloro-6-hydroxyphenyl)-2-(2-hydroxyethyl)-hexahydropyrido[1,2-a]pyrazine-1,4-dione] | < 10
